Results from PMC5066224, “A Novel Resveratrol Based Tubulin Inhibitor Induces Mitotic Arrest and Activates Apoptosis in Cancer Cells” (Scientific Reports, 2016).

How the values were obtained:
A549 = assay: Trypan blue dye exclusion cell viability assay; type: cell-based; details: Homo sapiens, 48 h
Experimental: (§1) The effect of SS28 on viability of CEM, Reh, Nalm6, SUDHL8, Molt4, A549, HeLa 293T, mouse embryonic fibroblast (MEF) and PBMC was determined by trypan blue dye exclusion assay as described previously. Briefly, cells (0.75 × 10^5 cells/ml) were treated with increasing concentrations of SS28 (1, 5, 10 and 20, μM) for 48 and 72 h. DMSO treated cells were used as the vehicle control. Cells were harvested and subjected to trypan blue assay. Data from a minimum of three independent experiments is presented as a histogram with error bars.

CEM = assay: Trypan blue dye exclusion cell viability assay; type: cell-based; details: Homo sapiens, CCRF-CEM, 48 h
Experimental: as §1

HeLa cells = assay: Trypan blue dye exclusion cell viability assay; type: cell-based; details: Homo sapiens, 48 h
Experimental: as §1

Molt4 = assay: Trypan blue dye exclusion cell viability assay; type: cell-based; details: Homo sapiens, MOLT-4, 48 h
Experimental: as §1

Nalm6 = assay: Trypan blue dye exclusion cell viability assay; type: cell-based; details: Homo sapiens, NALM-6, 48 h
Experimental: as §1

Reh = assay: Trypan blue dye exclusion cell viability assay; type: cell-based; details: Homo sapiens, 48 h
Experimental: as §1

SUDHL8 = assay: Trypan blue dye exclusion cell viability assay; type: cell-based; details: Homo sapiens, SU-DHL-8, 48 h
Experimental: as §1

[1] = system: mouse embryonic fibroblast cells (MEF); assay: Trypan blue dye exclusion cell viability assay; type: cell-based; details: 48 h
Experimental: as §1

[2] = system: peripheral blood mononuclear cells (PBMC); assay: Trypan blue dye exclusion cell viability assay; type: cell-based; details: 48 h
Experimental: as §1

HEK293T = assay: Trypan blue dye exclusion cell viability assay; type: cell-based, human; details: 1-20 μM, compared to most of the cancer cells
Experimental: as §1

purified Tubulin [3] = assay: Fluorescence binding study, double reciprocal plot; details: double reciprocal plot of fluorescence data, 1:1 binding, 30 °C, ± SEM; read-out: dissociation constant (Kd)
Experimental: Fluorescence spectral measurements were performed using Infinite M200 PRO microplate reader (Tecan Group Ltd., Switzerland). Briefly, SS28 (10 μM) was preincubated with increasing concentration of Tubulin (10, 25, 50, 100, 500 and 1000 nM) at 30 °C for 30 min. SS28 Tubulin complex was then scanned for the emission spectra from 345 to 545 nm at 315 nm excitation range. Resulting fluorescence intensity was plotted as the function of wavelength.
The dissociation constant (Kd) was determined using double reciprocal plot of change in fluorescence of SS28 (1/Δ(F0-F)) as a function of protein concentration by the method of Benesi and Hildebrand assuming a 1:1 binding of SS28 to Tubulin[48]. The spectral measurements were recorded three times and SEM was calculated.

purified Tubulin [4] = assay: Circular dichroism of Tubulin with SS28; type: binding; details: Tubulin 1 μM in PEM buffer, 200-260 nm, 4 °C
Experimental: Purified Tubulin (1 μM) was resuspended in PEM buffer (80 mM PIPES (pH 6.9), 2 mM MgCl2, 0.5 mM EGTA, 1.0 mM GTP and 5% glycerol) and CD spectrum was recorded at a wavelength of 200 to 260 nm (4 °C) on a JASCO J-810 spectropolarimeter. 3 cycles were acquired for each sample at a scan speed of 100 nm/sec. Increasing concentration of SS28 (500 pM, 1, 10, 100 and 1000 nM) was incubated with Tubulin (1 μM) in PEM buffer and the spectrum was recorded. Spectral measurements were taken for buffer alone and buffer containing DMSO were subtracted from experimental data. The molar ellipticity was calculated using Spectra Manager software and plotted as a function of wavelength.

A549 cells = assay: Cell cycle phase distribution by flow cytometry; type: cell-based, human; details: A549, 5 μM, 6 to 24 h
Experimental: (§2) Cell cycle analysis by flow cytometry was performed as previously described. Briefly, 75,000 cells/ml (A549) were seeded in 6 well plates and grown in serum free medium for 18 h. After synchronisation, the cells were treated with 5 μM of SS28 (6, 12, 18, 24 and 30 h) and cells were processed as described before. Similarly, CEM cells (75,000 cells/ml) were treated with SS28 (2 μM) and harvested (6, 12, 18, 24 and 30 h) and processed. Following fixation, cells were resuspended in PBS and stained with propidium iodide and evaluated in a flow cytometer (FACS Calibur, Becton Dickinson) using Cell Quest Pro software using excitation 488 nm laser and emission at 560/570 nm. A minimum of 10,000 cells were acquired per sample and histograms were analysed using WinMDI 2.8 software.

CEM cells [5] = assay: Cell cycle phase distribution by flow cytometry; type: cell-based, Human; details: 2 μM, after 12 h
Experimental: as §2

CEM cells [6] = assay: Mitochondrial membrane potential (JC-1 staining, flow cytometry); type: cell-based, Human; details: CEM, 1, 5, 10, 20 μM, 48 h
Experimental: Flow cytometric analysis of cells stained with JC-1 was used to measure changes in mitochondrial transmembrane potential as described. Briefly, cells were seeded at a density of 1 × 10^5 cells/ml and treated with SS28 (1, 5, 10 and 20 μM). After 48 h, cells were harvested, washed and incubated with JC-1 (5,5′,6,6 tetrachloro-1,1′,3,3′-tetraethyl benzimidazol carbocyanine iodide; Calbiochem, USA) for 15 min. 2,4-Dinitrophenol-treated cells (2,4-DNP) served as the positive control. Cells were processed and analyzed by flow cytometry using CellQuest pro software with an excitation at 488 nm laser and emission at 530 nm. JC-1 monomers emit at 530 nm and J-aggregates emit at 590 nm.

CEM cells [7] = assay: Annexin V-FITC/PI double-staining assay; type: cell-based, Human; details: 48 h; for cells in early apoptotic stage: Annexin positive; for cells in late apoptosis: Annexin/PI positive
Experimental: When cells undergo apoptosis, the integrity of the cell membrane is disrupted and phosphatidyl serine is exposed. Annexin V conjugated with FITC (apoptosis detection kit Santacruz, USA) has a selective affinity for phosphatidyl serine, based on which early and late apoptotic cells can be detected.
CEM cells (1 × 10^5 cells/ml) were treated with SS28 (5 and 10 μM) for 48 h. Cells were then harvested, washed with cold PBS and used for annexin-PI double-staining assay. Samples were resuspended in 1x binding buffer and incubated with Annexin V-FITC ([…]) and PI (0.05 mg/ml) and analyzed by flow cytometry (FACS calibur) using CellQuest pro software at an excitation with 488 nm laser and emission at 530 nm[55]. A minimum of 10,000 cells were acquired for each sample and illustrated as dot plot using Flowing software.

- IC50 (A549): 5.2 µM
- IC50 (HeLa cells): 32.4 µM
- IC50 (Molt4): 5.1 µM
- IC50 (SUDHL8): 2700 nM
- Kd (purified Tubulin [3]): 414 ± 110 nM
Compound: COc1cc(/C=C/c2ccc(C)cc2)cc(OC)c1OC [SS28, (E)-1,2,3-trimethoxy-5-(4-methylstyryl)benzene]
- IC50 (CEM): 2600 nM
- IC50 (Nalm6): 21 µM
- IC50 (Reh): 7.9 µM
- IC50 [1]: 5 µM
- IC50 [2]: > 35 µM
- cytotoxicity on normal cell line (HEK293T): limited cytotoxicity
- concentration from which a shift in the CD spectrum of Tubulin was seen (purified Tubulin [4]): ≥ 500 pM
- cell cycle distribution (A549 cells): significant accumulation of cells at G2/M phase
- cell cycle distribution (CEM cells [5]): distinct G2/M arrest
- mitochondrial membrane potential (JC-1 fluorescence) (CEM cells [6]): concentration dependant increase in the green fluoresced cells
- cells in early apoptotic stage (CEM cells [7]; 5 μM): 28.2%
- cells in late apoptosis (CEM cells [7]; 5 μM): 39.8%
- cells in early apoptotic stage (CEM cells [7]; 10 μM): 32.9%
- cells in late apoptosis (CEM cells [7]; 10 μM): 46.9%
- necrosis (CEM cells [7]; 5 and 10 μM): did not observe any cells undergoing necrosis
